{"source": "patent US20040224379A1", "about": "“Method and apparatus for detection of toxic substances in a sample” (priority 2000, published 2004)", "tested_on": "Tetramitus flagellates", "test": "Microscopic observations of swimming behavior and morphology of Tetramitus flagellates during exposure", "format": "cell-based, Tetramitus rostratus", "settings": "10 μg/mL", "data": [{"smiles": "O=[N+]([O-])c1cc[n+]([O-])c2ccccc12", "note": "[4-nitroquinoline-n-oxide]", "values": [{"measurement": "Swarming Behavior", "setting": "exposure time 0.5 Hours", "value": "Normal"}, {"measurement": "Swimming Velocity (% Slow)", "setting": "exposure time 0.5 Hours, cell wraps: 10-20% Slow", "value": "10-20%"}, {"measurement": "Spinner Frequency", "setting": "exposure time 0.5 Hours, cells rotating in a circular pattern", "value": "<1", "unit": "%"}, {"measurement": "Appearance of Larger Morphs", "setting": "exposure time 0.5 Hours, larger cells with abnormally-formed rostrum and large vacuoles", "value": "1-5%"}, {"measurement": "Appearance of Larger Morphs", "setting": "exposure time 0.9 Hours", "value": "5-10%"}, {"measurement": "Spinner Frequency", "setting": "exposure time 0.9 Hours", "value": "˜5%"}, {"measurement": "Swarming Behavior", "setting": "exposure time 0.9 Hours", "value": "Delayed"}, {"measurement": "Swimming Velocity (% Slow)", "setting": "exposure time 0.9 Hours, cell wraps: 50-70% Slow", "value": "50-70%"}, {"measurement": "Appearance of Larger Morphs", "setting": "exposure time 1.6 Hours", "value": "10-20%"}, {"measurement": "Spinner Frequency", "setting": "exposure time 1.6 Hours", "value": "5-10%"}, {"measurement": "Swimming Velocity (% Slow)", "setting": "exposure time 1.6 Hours, cell wraps: 100% Slow", "value": 100, "unit": "%"}, {"measurement": "Appearance of Larger Morphs", "setting": "exposure time 4.5 Hours", "value": 50, "unit": "%"}, {"measurement": "Spinner Frequency", "setting": "exposure time 4.5 Hours", "value": 20, "unit": "%"}, {"measurement": "Swimming Velocity (% Slow)", "setting": "exposure time 4.5 Hours, cell wraps: 100% Slow", "value": 100, "unit": "%"}, {"measurement": "Spinner Frequency", "setting": "exposure time 8.7 Hours", "value": "70-90%"}, {"measurement": "Swimming Velocity", "setting": "exposure time 8.7 Hours", "value": "Very Slow"}, {"measurement": "Swarming Behavior", "setting": "exposure time 8.7 Hours, cell wraps over rows: No Swarming", "value": "No"}, {"measurement": "Appearance of Larger Morphs", "setting": "exposure time 8.7 Hours, cell wraps: 100% Rounded cells with large vacuoles", "value": 100, "unit": "% Rounded cells"}]}]}
